Reference: US8431593B2, “Heteroaryl amide derivatives” (H. Lundbeck A/S, priority 2006, dated 2013)
Like-named read-outs stand apart in the source and are kept apart here.

Target: T1, P2X7 receptor (Homo sapiens, UniProt Q99572)
T1 construct: host or cells: SH-SY5Y
T1 sequence (Q99572 1-595): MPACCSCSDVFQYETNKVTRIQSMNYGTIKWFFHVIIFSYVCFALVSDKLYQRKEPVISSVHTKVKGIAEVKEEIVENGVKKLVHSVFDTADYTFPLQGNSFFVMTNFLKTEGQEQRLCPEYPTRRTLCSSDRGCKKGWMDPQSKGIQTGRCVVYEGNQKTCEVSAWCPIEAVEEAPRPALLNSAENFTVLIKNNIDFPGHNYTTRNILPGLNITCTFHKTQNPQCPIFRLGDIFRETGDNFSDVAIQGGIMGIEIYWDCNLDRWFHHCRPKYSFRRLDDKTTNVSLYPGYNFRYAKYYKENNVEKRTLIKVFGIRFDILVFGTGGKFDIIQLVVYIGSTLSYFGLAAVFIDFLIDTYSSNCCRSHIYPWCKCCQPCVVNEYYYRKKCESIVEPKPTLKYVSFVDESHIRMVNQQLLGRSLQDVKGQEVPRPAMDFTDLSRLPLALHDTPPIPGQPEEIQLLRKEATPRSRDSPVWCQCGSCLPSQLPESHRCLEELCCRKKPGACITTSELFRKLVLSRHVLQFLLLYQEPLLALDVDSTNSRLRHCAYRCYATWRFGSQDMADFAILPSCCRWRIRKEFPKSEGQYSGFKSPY
Experiment: P2X7 calcium mobilization assay, high throughput, antagonist activity (Example 4A)
Type: cell-based
Settings: 50% decrease in the fluorescence response of cells exposed to 80 μM of 2′(3′)-O-(4-benzoyl-benzoyl)adenosine 5′-triphosphate, read-out: IC50
Outline: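 Antagonism was measured as calcium fluorescence (FLIPR Tetra) in cells seeded one day earlier at 100,000/well, loaded with dye for 1 h and exposed to compound for 1 h at room temperature before agonist. Peak RFU, minus the no-agonist background, was referenced to the mean of the agonist wells.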

Row | SMILES | IC50 (Example 4A) [nM] | IC50 (determined as in Example 4A) [nM]
1 | O=C(NCC12CC3CC(CC(C3)C1)C2)c1cccc2nc(Cn3nnc(-c4cccnc4)n3)cn12 [Compound 813, N-(adamantan-1-ylmethyl)-2-[(5-pyridin-3-yl-2H-tetrazol-2-yl)methyl] imidazo[1,2-a] pyridine-5-carboxamide] | < 2000 | 
2 | O=C(NCC12CC3CC(CC(C3)C1)C2)c1cccc2nc(Cn3nnnc3-c3cccnc3)cn12 [Compound 814, N-(adamantan-1-ylmethyl)-2-[(5-pyridin-3-yl-1H-tetrazol-1-yl)methyl]imidazo [1,2-a]pyridine-5-carboxamide] | < 2000 | 
3 | O=C(Nc1nnn[nH]1)c1cn2c(C(=O)NCC34CC5CC(CC(C5)C3)C4)cccc2n1 [Compound 815, 5-N-(adamantan-1-ylmethyl)-2-N-1H-tetrazol-5-ylmidazo[1,2-a] pyridine-2,5-dicarboxamide] | < 2000 | 
4 | O=C(NCC12CC3CC(CC(C3)C1)C2)c1cccc2nc(Cn3nnc(-c4ccccn4)n3)cn12 [Compound 816, N-(adamantan-1-ylmethyl)-2-[(5-pyridin-2-yl-2H-tetrazol-2-yl)methyl]imidazo [1,2-a]pyridine-5-carboxamide] | < 2000 | 
5 | O=C(NCC12CC3CC(CC(C3)C1)C2)c1cccc2nc(Cn3nnnc3-c3ccncc3)cn12 [Compound 818, N-(adamantan-1-ylmethyl)-2-[(5-pyridin-4-yl-1H-tetrazol-1-yl)methyl]imidazo [1,2-a]pyridine-5-carboxamide] |  | < 2000
6 | O=C(NCC12CC3CC(CC(C3)C1)C2)c1cccc2nc(CC(=O)N3CCS(=O)(=O)CC3)cn12 [Compound 820, N-(adamantan-l-ylmethyl)-2-[2-(1,1-dioxidothio-morpholin-4-yl)-2-oxoethyl] imidazo[1,2-a] pyridine-5-carboxamide] |  | < 2000
7 | N[C@@H]1CCN(Cc2cn3c(C(=O)NCC4(c5ccc(Cl)cc5)CCCCC4)cccc3n2)C1 [Compound 821, 2-{[(3R)-3-aminopyrrolidin-1-yl]methyl}-N-{[1-(4-chlorophenyl)cyclohexyl]methyl} imidazo[1,2-a]pyridine-5-carboxamide] |  | < 2000
8 | N[C@@H]1CCN(Cc2cn3c(C(=O)NCC4(c5ccc(C(F)(F)F)cc5)CCCCC4)cccc3n2)C1 [Compound 822, 2-{[(3R)-3-aminopyrrolidin-1-yl]methyl}-N-({1-[4-(trifluoromethyl)phenyl]cyclohexyl}methyl) imidazo[1,2-a] pyridine-5-carboxamide] |  | < 2000
9 | CC(C)CC(CNC(=O)c1cccc2nc(CN3CC[C@@H](N)C3)cn12)c1cccnc1 (stereo partly drawn) [Compound 823, 2-{[(3R)-3-aminopyrrolidin-1-yl]methyl}-N-(4-methyl-2-pyridin-3-ylpentyl)imidazo[1,2-a]pyridine-5-carboxamide] |  | < 2000
10 | Cc1ccc(C2(CNC(=O)c3cccc4nc(CN5CC[C@@H](N)C5)cn34)CCCCC2)cn1 [Compound 824, 2-{[(3R)-3-aminopyrrolidin-1-yl]methyl}-N-{[1-(6-methylpyridin-3-yl)cyclohexyl]methyl} imidazo[1,2-a] pyridine-5-carboxamide] |  | < 2000
11 | CN(Cc1cccc(N)n1)C(=O)c1cn2c(C(=O)NCC34CC5CC(CC(C5)C3)C4)cccc2n1 [Compound 825, 5-N-(adamantan-1-ylmethyl)-2-N-[(6-aminopyridin-2-yl)methyl]-2-N-methylimidazo[1,2-a]pyridine-2,5-dicarboxamide] |  | < 2000
12 | O=C(NCC12CC3CC(CC(C3)C1)C2)c1cccc2nc(C(=O)n3ccc(N4CCNC4=O)n3)cn12 [Compound 826, N-(adamantan-1-ylmethyl)-2-{[3-(2-oxoimidazolidin-1-yl)-1H-pyrazol-1-yl]carbonyl}imidazo [1,2-a]pyridine-5-carboxamide] |  | < 2000
13 | O=C(NCC12CC3CC(CC(C3)C1)C2)c1cccc2nc(Cn3nnnc3N3CCOCC3)cn12 [Compound 828, N-(adamantan-1-ylmethyl)-2-[(5-morpholin-4-yl-1H-tetrazol-1-yl)methyl]imidazo [1,2-a]pyridine-5-carboxamide] |  | < 2000
14 | CC(C)CC(CNC(=O)c1cccc2nc(C(=O)N3CCC[C@@H](N)C3)cn12)c1ccc(Cl)cc1 (stereo partly drawn) [Compound 832, 2-{[(3R)-3-aminopiperidin-1-yl]carbonyl}-N-[2-(4-chlorophenyl)-4-methylpentyl] imidazo[1,2-a] pyridine-5-carboxamide] |  | < 2000
15 | CCOC(=O)C1(c2cn3c(C(=O)NCC45CC6CC(CC(C6)C4)C5)cccc3n2)CCCC1 [Compound 833, ethyl 1-{5-[(adamantan-1-ylmethyl)carbamoyl]imidazo[1,2-a]pyridin-2-yl} cyclopentane-carboxylate] |  | < 2000
16 | CC(C)CC(CNC(=O)c1cccc2nc(Cn3ccc(N)n3)cn12)c1ccc(Cl)cc1 (centres unmarked) [Compound 834, 2-[(3-amino-1H-pyrazol-1-yl)methyl]-N-[2-(4-chlorophenyl)-4-methylpentyl] imidazo [1,2-a]pyridine-5-carboxamide] |  | < 2000
17 | CC(C)CC(CNC(=O)c1cccc2nc(CNc3cc[nH]n3)cn12)c1ccc(Cl)cc1 (centres unmarked) [Compound 835, N-[2-(4-chlorophenyl)-4-methylpentyl]-2-[(1H-pyrazol-3-ylamino)methyl] imidazo [1,2-a]pyridine-5-carboxamide] |  | < 2000
18 | CC(C)CC(CNC(=O)c1cccc2nc(Cn3nccc3N)cn12)c1ccc(Cl)cc1 (centres unmarked) [Compound 836, 2-[(5-amino-1H-pyrazol-1-yl)methyl]-N-[2-(4-chlorophenyl)-4-methylpentyl] imidazo [1,2-a]pyridine-5-carboxamide] |  | < 2000
19 | O=C(Cc1cn2c(C(=O)NCC34CC5CC(CC(C5)C3)C4)cccc2n1)N[C@@H]1CCNC1 [Compound 837, N-(adamantan-1-ylmethyl)-2-{2-oxo-2-[(3R)-pyrrolidin-3-ylamino]ethyl} imidazo [1,2-a]pyridine-5-carboxamide] |  | < 2000
20 | O=C(Cc1cn2c(C(=O)NCC34CC5CC(CC(C5)C3)C4)cccc2n1)N[C@@H]1CCCNC1 [Compound 838, N-(adamantan-1-ylmethyl)-2-{2-oxo-2-[(3R)-piperidin-3-ylamino]ethyl} imidazo[1,2-a] pyridine-5-carboxamide] |  | < 2000
21 | CC(C)CC(CNC(=O)c1cccc2nc(CC(=O)N3CCC[C@@H](N)C3)cn12)c1ccc(Cl)cc1 (stereo partly drawn) [Compound 839, 2-{2-[(3R)-3-aminopiperidin-1-yl]-2-oxoethyl}-N-[2-(4-chlorophenyl)-4-methylpentyl] imidazo[1,2-a] pyridine-5-carboxamide] |  | < 2000
22 | CCOC(=O)C(Cc1ccccc1Cl)c1cn2c(C(=O)NCC34CC5CC(CC(C5)C3)C4)cccc2n1 (centres unmarked) [Compound 840, ethyl 2-{5-[(adamantan-1-ylmethyl)carbamoyl]imidazo[1,2-a]pyridin-2-yl}-3-(2-chlorophenyl) propanoate] |  | < 2000
23 | CCOC(=O)C(Cc1cccc(Cl)c1)c1cn2c(C(=O)NCC34CC5CC(CC(C5)C3)C4)cccc2n1 (centres unmarked) [Compound 841, ethyl 2-{5-[(adamantan-1-ylmethyl)carbamoyl]imidazo[1,2-a]pyridin-2-yl}-3-(3-chlorophenyl) propanoate] |  | < 2000
24 | CCOC(=O)C(Cc1cccc(OC)c1)c1cn2c(C(=O)NCC34CC5CC(CC(C5)C3)C4)cccc2n1 (centres unmarked) [Compound 842, ethyl 2-{5-[(adamantan-1-ylmethyl)carbamoyl]imidazo[1,2-a]pyridin-2-yl}-3-(3-methoxyphenyl) propanoate] |  | < 2000
25 | COc1cccc(CC(C(=O)O)c2cn3c(C(=O)NCC45CC6CC(CC(C6)C4)C5)cccc3n2)c1 (centres unmarked) [Compound 843, 2-{5-[(adamantan-1-ylmethyl)carbamoyl]imidazo[1,2-a]pyridin-2-yl}-3-(3-methoxyphenyl) propanoic acid] |  | < 2000
26 | O=C(NCC12CC3CC(CC(C3)C1)C2)c1cccc2nc(C(Cc3ccccc3Cl)C(=O)O)cn12 (centres unmarked) [Compound 844, 2-{5-[(adamantan-1-ylmethyl)carbamoyl]imidazo[1,2-a]pyridin-2-yl}-3-(2-chlorophenyl) propanoic acid] |  | < 2000
27 | O=C(NCC12CC3CC(CC(C3)C1)C2)c1cccc2nc(CC3(C(=O)O)CCOCC3)cn12 [Compound 847, 4-({5-[(adamantan-1-ylmethyl)carbamoyl]imidazo [1,2-a]pyridin-2-yl}methyl) tetrahydro-2H-pyran-4-carboxylic acid] |  | < 2000
28 | O=C(NCC12CC3CC(CC(C3)C1)C2)c1cccc2nc(C(Cc3cccc(Cl)c3)C(=O)O)cn12 (centres unmarked) [Compound 848, 2-{5-[(adamantan-1-ylmethyl)carbamoyl]imidazo[1,2-a]pyridin-2-yl}-3-(3-chlorophenyl) propanoic acid] |  | < 2000
29 | CCOC(=O)C1(c2cn3c(C(=O)NCC45CC6CC(CC(C6)C4)C5)cccc3n2)CCCCC1 [Compound 849, ethyl 1-{5-[(adamantan-1-ylmethyl)carbamoyl]imidazo[1,2-a]pyridin-2-yl} cyclohexane-carboxylate] |  | < 2000
